Test results as given in US11958812B2, “3, 5-disubstituted pyridine and 3, 5-disubstituted pyridazine derivatives and pharmaceutical use of same” (MITSUBISHI TANABE PHARMA CORPORATION, priority 2018, dated 2024).

Target: human recombinant ATX (Homo sapiens, UniProt Q13822)
Test: Enzyme inhibition test (choline release from LPC, Amplex UltraRed fluorescence)
Assay type: biochemical
Conditions: 200 μM LPC substrate, 1 hr at room temperature, read-out: Experimental Example 1 human ATX IC50
Protocol: [Enzyme Inhibition Test Method]
A mixture (10 μL) of substrate and a set of choline quantification reagents (200 μM LPC (1-Oleoyl-sn-glycero-3-phosphocholine Sigma #L1881), 25 μM Amplex UltraRed reagent (Invitrogen), 0.1 U/mL Peroxidase (TOYOBO), 1 U/mL Choline oxidase (TOYOBO)), prepared with assay buffer (50 mM Tris (pH 8.0), 140 mM NaCl, 5 mM KCl, 1 mM CaCl2, 1 mM MgCl2, 0.1% BSA (Albumin from bovine serum, SIGMA), 0.0025% Triton X-100), enzyme (0.4 ng/μL human recombinant ATX) (10 μL), compound-containing solution (100 nL) were dispensed to a 384-well plate, incubated at room temperature for 1 hr and the fluorescence (Ex. 525 nm/Em. 598 nm) was measured. As the standard, choline chloride was used. With a blank free of enzyme was taken as inhibitory rate 100%, and a control free of inhibitor as inhibitory rate 0%, the inhibitory rate was calculated, and IC50 value was calculated from the inhibitory activity percentage at each concentration.

Row | SMILES | IC50 [nM]
1 | O=C(O)CC[C@H]1CN(c2cncc(COc3ccc(C(F)(F)F)cc3)c2)CCO1 [Example 86] | 129
2 | O=C(O)CC[C@H]1CN(c2cncc(OCc3ccc(Cl)cc3)c2)CCO1 [Example 78] | 91
3 | O=C(O)c1ccnc(C2CN(c3cncc(OC[C@H]4CC[C@H](C(F)(F)F)CC4)c3)CCO2)c1 (some centres unmarked) [Example 51] | 5
4 | O=C(O)c1ccc2c(c1)CCCN2c1cncc(OCc2ccc(OC(F)(F)F)cc2)c1 [Example 41] | 31
5 | O=C(O)COC[C@@H]1COCCN1c1cncc(OCc2ccc(OC(F)(F)F)cc2)c1 [Example 21, {[(3S)-4-(5-{[4-(trifluoromethoxy)benzyl]oxy}pyridin-3-yl)morpholin-3-yl]methoxy}acetic Acid] | 56
6 | Cc1cc(C2CN(c3cncc(OC[C@H]4CC[C@H](C(F)(F)F)CC4)c3)CCO2)ncc1C(=O)O (some centres unmarked) [Example 56] | 7
7 | Cc1ncc(C2CN(c3cncc(OC[C@H]4CC[C@H](C(F)(F)F)CC4)c3)CCO2)cc1C(=O)O (some centres unmarked) [Example 59] | 5
8 | COc1cc(C2CN(c3cncc(OC[C@H]4CC[C@H](C(F)(F)F)CC4)c3)CCO2)cnc1C(=O)O (some centres unmarked) [Example 53] | 1
9 | O=C(O)CCCC1CCN(c2cncc(OCc3ccc(OC(F)(F)F)cc3)c2)C1 (centres unmarked) [Example 99] | 50
10 | O=C(O)CC[C@H]1CN(c2cncc(OCc3ccc(OC(F)(F)F)c(Cl)c3)c2)CCO1 [Example 85] | 29
11 | O=C(O)c1ccnc(C2CN(c3cncc(OCc4ccc(OC(F)(F)F)cc4)c3)CCO2)c1 (centres unmarked) [Example 65] | 16
12 | O=C(O)[C@@H]1C[C@H]1c1cc(-c2cncc(OCc3ccc(OC(F)(F)F)cc3)c2)ccn1 [Example 11-2, (1R,2R)-2-(5-{[4-(trifluoromethoxy)benzyl]oxy}-3,4′-bipyridin-2′-yl)cyclopropanecarboxylic Acid] | 25
13 | O=C(O)c1ccc(C2CN(c3cncc(OC[C@H]4CC[C@H](C(F)(F)F)CC4)c3)CCO2)cn1 (some centres unmarked) [Example 49] | 3
14 | O=C(O)c1ccccc1C1CN(c2cncc(OCc3ccc(OC(F)(F)F)cc3)c2)CCO1 (centres unmarked) [Example 44] | 350
15 | O=C(O)c1cncc(C2CN(c3cncc(OCc4ccc(OC(F)(F)F)cc4)c3)CCO2)c1 (centres unmarked) [Example 64] | 1
16 | O=C(O)[C@H]1C[C@@H]1c1cc(-c2cnnc(OC[C@H]3CC[C@H](C(F)(F)F)CC3)c2)ccn1 [Example 10-1, (1S,2S)-2-[4-(6-{[trans-4-(trifluoromethyl)cyclohexyl]methoxy}pyridazin-4-yl)pyridin-2-yl]cyclopropanecarboxylic Acid] | 1
17 | Cc1cnc(C2CN(c3cncc(OC[C@H]4CC[C@H](C(F)(F)F)CC4)c3)CCO2)cc1C(=O)O (some centres unmarked) [Example 61] | 15
18 | O=C(O)c1ccc(C2CN(c3cncc(OC[C@H]4CC[C@H](C(F)(F)F)CC4)c3)CCO2)nc1 (some centres unmarked) [Example 50] | 10
19 | O=C(O)COC[C@H]1CCCN1c1cncc(OCc2ccc(OC(F)(F)F)cc2)c1 [Example 24, {[(2R)-1-(5-{[4-(trifluoromethoxy)benzyl]oxy}pyridin-3-yl)pyrrolidin-2-yl]methoxy}acetic Acid] | 13
20 | O=C(O)c1ccc2c(c1)N(c1cncc(OCc3ccc(OC(F)(F)F)cc3)c1)CC2 [Example 37] | 8

Results, then the compound that gave them:

Row | IC50 [nM] | SMILES
21 | 56 | COc1ccc(-c2cncc(/C=C\c3ccc(OC(F)(F)F)cc3)c2)nc1[C@H]1C[C@@H]1C(=O)O [Example 27]
22 | 4 | Cc1ccc(C2CN(c3cncc(OC[C@H]4CC[C@H](C(F)(F)F)CC4)c3)CCO2)nc1C(=O)O (some centres unmarked) [Example 58]
23 | 32 | O=C(O)CCCC1CN(c2cncc(OCc3ccc(OC(F)(F)F)cc3)c2)CCO1 (centres unmarked) [Example 94]
24 | 7 | O=C(O)c1ccc(C2CN(c3cncc(OCc4ccc(OC(F)(F)F)cc4)c3)CCO2)nc1 (centres unmarked) [Example 63]
25 | 1 | COc1ccc(-c2cnnc(OC[C@H]3CC[C@H](C(F)(F)F)CC3)c2)nc1[C@H]1C[C@]1(C)C(=O)O [Example 7-1, (1S,2S)-2-[3-methoxy-6-(6-{[trans-4-(trifluoromethyl)cyclohexyl]methoxy}pyridazin-4-yl)pyridin-2-yl]-1-methylcyclopropanecarboxylic Acid]
26 | 382 | O=C(O)c1cccc2c1CCN2c1cncc(OCc2ccc(OC(F)(F)F)cc2)c1 [Example 38]
27 | 13 | O=C(O)c1cccc(C2CCN(c3cncc(OCc4ccc(OC(F)(F)F)cc4)c3)C2)c1 (centres unmarked) [Example 67]
28 | 2 | CCOc1ccc(-c2cnnc(OCC3CCN(CC(F)(F)F)CC3)c2)cc1[C@H]1C[C@@H]1C(=O)O [Example 30]
29 | 3 | COc1ccc(C2CN(c3cncc(OC[C@H]4CC[C@H](C(F)(F)F)CC4)c3)CCO2)cc1C(=O)O (some centres unmarked) [Example 47]
30 | 14 | O=C(O)c1ccc(C2CCCN2c2cncc(OCc3ccc(OC(F)(F)F)cc3)c2)cc1 (centres unmarked) [Example 68]
31 | 5 | Cc1cc(C2CN(c3cncc(OCc4ccc(OC(F)(F)F)cc4)c3)CCO2)cnc1C(=O)O (centres unmarked) [Example 66]
32 | 10 | CC1(C)CCC(COc2cncc(N3CCO[C@@H](CCC(=O)O)C3)c2)CC1 [Example 74]
33 | 120 | O=C(O)CCC1CCN(c2cncc(OCc3ccc(OC(F)(F)F)cc3)c2)C1 (centres unmarked) [Example 98]
34 | 17 | COc1ccc(-c2cnnc(CCc3ccc(OC(F)(F)F)cc3)c2)cc1[C@@H]1C[C@H]1C(=O)O (relative stereo) [Example 4, trans-2-[2-methoxy-5-(6-{2-[4-(trifluoromethoxy)phenyl]ethyl}pyridazin-4-yl)phenyl]cyclopropanecarboxylic Acid]
35 | 133 | C[C@H]1CN(c2cncc(OCc3ccc(OC(F)(F)F)cc3)c2)C[C@H](CCC(=O)O)O1 [Example 88]
36 | 2 | C[C@@]1(C(=O)O)C[C@H]1[C@H]1CN(c2cncc(OC[C@H]3CC[C@H](C(F)(F)F)CC3)c2)CCO1 (relative stereo) [Example 20, trans-1-methyl-2-[(2S)-4-(5-{[trans-4-(trifluoromethyl)cyclohexyl]methoxy}pyridin-3-yl)morpholin-2-yl]cyclopropanecarboxylic Acid]
37 | 5 | COc1cc(C2CN(c3cncc(OC[C@H]4CC[C@H](C(F)(F)F)CC4)c3)CCO2)ncc1C(=O)O (some centres unmarked) [Example 54]
38 | 10 | O=C(O)[C@H]1C[C@@H]1c1cc(-c2cncc(OCc3ccc(OC(F)(F)F)cc3)c2)ccn1 [Example 11-1, (1S,2S)-2-(5-{[4-(trifluoromethoxy)benzyl]oxy}-3,4′-bipyridin-2′-yl)cyclopropanecarboxylic Acid]
39 | 2 | Cc1cc(C2CN(c3cncc(OC[C@H]4CC[C@H](C(F)(F)F)CC4)c3)CCO2)cnc1C(=O)O (some centres unmarked) [Example 55]
40 | 57 | COc1ccc(-c2cncc(OCc3cccc(OC(F)(F)F)c3)c2)cc1C1CC1C(=O)O (centres unmarked) [Example 33]
41 | 56 | CC(C[C@H]1CN(c2cncc(OCc3ccc(OC(F)(F)F)cc3)c2)CCO1)C(=O)O (stereo partly drawn) [Example 17, 2-methyl-3-[(2S)-4-(5-{[4-(trifluoromethoxy)benzyl]oxy}pyridin-3-yl)morpholin-2-yl]propanoic Acid]
42 | 8 | O=C(O)c1ccc(C2CN(c3cncc(OCc4ccc(OC(F)(F)F)cc4)c3)CCO2)cc1 (centres unmarked) [Example 42]
43 | 189 | O=C(O)CC[C@H]1CN(c2cncc(OCc3cccc(Cl)c3)c2)CCO1 [Example 79]
44 | 68 | O=C(O)CC[C@H]1CN(c2cncc(OCC3CCC(F)(F)CC3)c2)CCO1 [Example 75]
